In patent US8809361B2, “2,3-dihydrofuro[2,3-c]pyridines, their use as modulators of the G-protein-coupled receptor GPR119 and pharmaceutical compositions thereof” (Boehringer Ingelheim International GmbH, priority 2012, dated 2014):

molecular target: T1, human GPR119 (Homo sapiens, UniProt Q8TDV5); test: GPR119 activation / intracellular cAMP stimulation, AlphaScreen cAMP Assay in Min-6/hGPR119 cells; assay type: cell-based; details: MIN6 cells stably transfected with human GPR119, 45 minutes incubation at room temperature
T1 construct: expression vector for human GPR119 cDNA (Acc. No. NP_848566); expressed in transfected cells
T1 sequence (Q8TDV5 1-335): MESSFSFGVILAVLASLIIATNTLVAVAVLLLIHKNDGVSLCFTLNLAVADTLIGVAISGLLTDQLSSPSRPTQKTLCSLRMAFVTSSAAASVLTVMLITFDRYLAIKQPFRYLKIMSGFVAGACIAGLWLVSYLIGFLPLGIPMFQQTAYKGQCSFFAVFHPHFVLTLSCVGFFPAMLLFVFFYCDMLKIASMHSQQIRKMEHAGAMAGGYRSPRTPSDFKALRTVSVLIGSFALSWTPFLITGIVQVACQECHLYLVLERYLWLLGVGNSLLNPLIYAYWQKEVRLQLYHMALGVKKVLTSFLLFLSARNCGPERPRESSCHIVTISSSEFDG
Method: The compounds of formula I according to the invention modulate the activity of the G-protein-coupled receptor GPR119. The effect of the compounds on the activation of GPR119 and on the stimulation of intracellular cAMP concentration is determined using the AlphaScreen cAMP Assay Kit (Cat. No. #6760625R) made by PerkinElmer.
MIN6 cells [Miyazaki J et al., Endocrinology. 1990 July; 127(1):126-32] are stably transfected with an expression vector for human GPR119 cDNA (Acc. No. NP_848566). Min-6/hGPR119 cells are cultured in DMEM, 10% FBS, 50 μM β-mercaptoethanol, 0.3 mg/mL Geniticin, 2 mM GlutaMAX at 37° C., 5% CO2. For the assay, the cells are seeded in Optiplates (white, 384-well, 160W-barcoded, TC, sterile with lid, Cat. No. #6007688 (Perkin Elmer); 10000 cells/well; 50 μL). The plates covered with lids are then incubated for 24 hours at 37° C., 5% CO2. After the medium is aspirated from the wells completely, 10 ill of the test compound are added, the compounds are diluted using stimulating buffer (140 mM NaCl, 3.6 mM KCl, 0.5 mM NaH2PO4, 0.5 mM MgSO4, 1.5 mM CaCl2, 10 mM Hepes, 5 mM NaHCO3; pH 7.4. 0.5 mM IBMX and 0.1% BSA, the final DMSO concentration is 1%). After 45 minutes incubation at room temperature (approx. 20° C.), the cAMP concentrations are determined using the AlphaScreen cAMP Assay Kit (Cat. No. #6760625R from PerkinElmer).

Structure (SMILES) | EC50
CC(C)c1nc(N2CCC3(CC2)CC2(Cc4cc(C5=CCN(S(C)(=O)=O)CC5)ncc4O2)C3)no1 [Example 25, 1″-(5-Isopropyl-[1,2,4]oxadiazol-3-yl)-5-(1-methanesulfonyl-1,2,3,6-tetrahydro-pyridin-4-yl)-dispiro[2,3-dihydrofuro[2,3-c]pyridine-2,1′-cyclobutane-3′,4″-piperidine]] | 5 nM
CC1(OC(=O)N2CCC3(CC2)CC2(Cc4cc(C5=CCN(S(C)(=O)=O)CC5)ncc4O2)C3)CC1 [Example 12, 5-(1-Methanesulfonyl-1,2,3,6-tetrahydro-pyridin-4-yl)-1″-(1-methyl-cyclopropyloxycarbonyl)-dispiro[2,3-dihydrofuro[2,3-c]pyridine-2,1′-cyclobutane-3′,4″-piperidine]] | 11 nM
CC(C)(C)OC(=O)N1CCC2(CC1)CC1(Cc3cc(C4CCN(S(C)(=O)=O)CC4)ncc3O1)C2 [Example 19, 5-(1-Methanesulfonyl-piperidin-4-yl)-1″-tert-butoxycarbonyl-dispiro[2,3-dihydrofuro[2,3-c]pyridine-2,1′-cyclobutane-3′,4″-piperidine]] | 106 nM
CS(=O)(=O)N1CC=C(c2cc3c(cn2)OC2(C3)CC3(CCN(c4ccc(C(F)(F)F)cn4)CC3)C2)CC1 [Example 11, 5-(1-Methanesulfonyl-1,2,3,6-tetrahydro-pyridin-4-yl)-1″-(5-trifluoromethyl-pyridin-2-yl)-dispiro[2,3-dihydrofuro[2,3-c]pyridine-2,1′-cyclobutane-3′,4″-piperidine]] | 13 nM
CC(C)(C)OC(=O)N1CCC2(CC1)CC1(Cc3cc(-c4ccc(S(C)(=O)=O)cc4)ncc3O1)C2 [Example 1, 5-(4-Methylsulfonyl-phenyl)-1″-tert-butoxycarbonyl-dispiro[2,3-dihydrofuro[2,3-c]pyridine-2,1′-cyclobutane-3′,4″-piperidine]] | 21 nM
CS(=O)(=O)N1CC=C(c2cc3c(cn2)OC2(C3)CC3(CCN(c4ncc(Cl)cn4)CC3)C2)CC1 [Example 9, 1″-(5-Chloro-pyrimidin-2-yl)-5-(1-methanesulfonyl-1,2,3,6-tetrahydro-pyridin-4-yl)-dispiro[2,3-dihydrofuro[2,3-c]pyridine-2,1′-cyclobutane-3′,4″-piperidine]] | 6 nM
CC(C)(C)OC(=O)N1CCC2(CC1)CC1(Cc3cc(-c4ccc(CS(C)(=O)=O)cc4)ncc3O1)C2 [Example 18, 5-(4-Methylsulfonylmethyl-phenyl)-1″-tert-butoxycarbonyl-dispiro[2,3-dihydrofuro[2,3-c]pyridine-2,1′-cyclobutane-3′,4″-piperidine]] | 24 nM
CCNC(=O)c1ccc(-c2cc3c(cn2)OC2(C3)CC3(CCN(C(=O)OC(C)(C)C)CC3)C2)cc1 [Example 22, 5-(4-Ethylaminocarbonyl-phenyl)-1″-tert-butoxycarbonyl-dispiro[2,3-dihydrofuro[2,3-c]pyridine-2,1′-cyclobutane-3′,4″-piperidine]] | 28 nM
CSc1ccc(-c2cc3c(cn2)OC2(C3)CC3(CCN(C(=O)OC(C)(C)C)CC3)C2)c(C#N)c1 [Example 30, 5-(2-Cyano-4-methylsulfanyl-phenyl)-1″-tert-butoxycarbonyl-dispiro[2,3-dihydrofuro[2,3-c]pyridine-2,1′-cyclobutane-3′,4″-piperidine]] | 14 nM
CC(C)Oc1cnc(N2CCC3(CC2)CC2(Cc4cc(C5=CCN(S(C)(=O)=O)CC5)ncc4O2)C3)nc1 [Example 15, 1″-(5-Isopropoxy-pyrimidin-2-yl)-5-(1-methanesulfonyl-1,2,3,6-tetrahydro-pyridin-4-yl)-dispiro[2,3-dihydrofuro[2,3-c]pyridine-2,1′-cyclobutane-3′,4″-piperidine]] | 10 nM
CC(C)(C)OC(=O)N1CCC2(CC1)CC1(Cc3cc(-c4ccc(S(C)(=O)=O)nc4)ncc3O1)C2 [Example 13, 5-(6-Methanesulfonyl-pyridin-3-yl)-1″-tert-butoxycarbonyl-dispiro[2,3-dihydrofuro[2,3-c]pyridine-2,1′-cyclobutane-3′,4″-piperidine]] | 42 nM
CS(=O)(=O)N1CC=C(c2cc3c(cn2)OC2(C3)CC3(CCN(c4ncc(C5CC5)cn4)CC3)C2)CC1 [Example 17, 1″-(5-Cyclopropyl-pyrimidin-2-yl)-5-(1-methanesulfonyl-1,2,3,6-tetrahydro-pyridin-4-yl)-dispiro[2,3-dihydrofuro[2,3-c]pyridine-2,1′-cyclobutane-3′,4″-piperidine]] | 9 nM
CC(C)(C)OC(=O)N1CCC2(CC1)CC1(Cc3cc(-c4ccc(S(C)(=O)=O)cc4F)ncc3O1)C2 [Example 3, 5-(2-Fluoro-4-methylsulfonyl-phenyl)-1″-tert-butoxycarbonyl-dispiro[2,3-dihydrofuro[2,3-c]pyridine-2,1′-cyclobutane-3′,4″-piperidine]] | 15 nM
